Assay results from US11040949B2, “Compounds affecting pigment production and methods for treatment of bacterial diseases” (Versitech Limited, priority 2017, dated 2021).
In brackets after ≈: the same amount, converted by molar mass.

Legend:
[1] = Solubility in commonly used solvents for oral administration; assay type: physicochemical
[2] = tested on: methicillin-resistant S. aureus (MRSA); test: MRSA skin infection, wound closure; assay type: in vivo, mice; conditions: for wound healing compared with mupirocin and linezolid: 30 mg/kg oral BID for 7 days
Experimental: FIG. 11B are photos from the top view of mice with skin infection caused by MRSA before (at Day 0) and after different treatments (at Day 7): top left received 2% mupirocin via topical BID for 7 days; top right received 100 mg/kg linezolid via oral BID for 7 days; bottom received 30 mg/kg IM032 via oral BID for 7 days.
Visual wound healing/closure in different treatment groups of mice can be observed in FIG. 11B.

[3] = tested on: MRSA USA 300 ATCC BAA-1717; test: Mouse (LD0-20) bacteremia model; assay type: in vivo, BALB/c mice; conditions: IM032 0.3-30 mg/kg PO BID for 7 days; sacrificed at 168 h (Day 7)
Experimental: Efficacy of IM032 in a Mouse (LD0-20) Bacteremia Model Infected with Methicillin-Resistant Staphylococcus (MRSA USA300) (BAA-1717)
A bacterial strain, USA 300 MRSA BAA-1717, was used to infect BALB/c (female). Test animals were intravenously (IV) inoculated with MRSA ATCC BAA-1717 at a target density of 1×10^6 CFU/mouse. Test substance, IM032 at 0, 0.3, 1, 3, 10, and 30 mg/kg, was administered orally (PO) twice daily (BID) for a total of 7 dosing days.
The reference agents, vancomycin at 3 mg/kg was administered IV once (QD) at 1 h after infection for 7 consecutive days.
With reference to FIG. 9, the animals were IV inoculated with MRSA USA 300 ATCC BAA-1717 at 1.02×10^6 CFU/mouse. IM032 at 0.3, 1, 3, 10, and 30 mg/kg were orally (PO) administrated twice daily (BID) at 1 and 7 h after the infection on Day 1, and then twice daily at 6-hour intervals in the next 6 days for a total of 7 days of dosing. Vancomycin, at 3 mg/kg, was administered intravenously (IV) at 1 h after the infection on Day 1 and then once a day in the next 6 days for a total of 7 days of dosing. […] Statistical significance compared to the respective vehicle control was determined by unpaired student t-tests. […]
With reference to FIG. 10, bacterial density in lung and liver were determined. […] Statistical significance compared to the respective vehicle control was determined by unpaired student t-tests. […]

[4] = Solubility in simulated gastric and intestinal fluids; assay type: physicochemical
Description: The following table (Table 4) illustrates the solubility of two different compounds, NP16-XL-016 (hereinafter as “IM032”) and NP16-XL-061 (hereinafter as “IM032-C”), in two solutions with different pH values simulating the pH of gastric juice and human intestinal fluid using HCl and phosphate buffer respectively.

With `O=C(/C=C/c1ccccc1Br)Nc1ccc(S(=O)(=O)N2CCCCC2)cc1` [NP16-XL-016, 3-(6-bromophenyl)-N-[4-(1-piperidine-1-sulfonyl)phenyl]-acrylamide] the solubility ([1]; 1:1 Labrasol ALF/PEG300, organic solvent or mixture) was 16.1 mg/mL (≈ 35.8 mM), the solubility ([1]; 1:1 Labrasol ALF/PEG400, organic solvent or mixture) was over 15 mg/mL and the solubility ([1]; Labrasol ALF, oil or lipid) was 11.8 mg/mL (≈ 26.3 mM). The solubility ([1]; PEG300, organic solvent or mixture) was over 20 mg/mL, the solubility ([1]; PEG400, organic solvent or mixture) was over 20 mg/mL and the “wound healing compared with mupirocin and linezolid” value ([2]; listed as ALS-4) was “statistically significant improvement in wound healing”. The “wound healing compared with mupirocin and linezolid” value ([2]; listed as IM032) was “best visual wound healing”, the “percentage of wound closure” value ([2]; 30 mg/kg oral twice a day, Day 7) was 63.8% and the “bacteria count across major organs” value [3] was “statistically significant reduction in bacteria count across major organs”. For the same molecule, the solubility ([4]; 0.1N HCl + 0.1% Tween 80 (simulated gastric fluid), pH 2, aqueous with cosolvent or surfactant or cyclodextrin, read-out: Solubility in pH 2 (0.1N HCl + 0.1% Tween 80)-simulating human stomach) was 0.00203 mg/mL, the solubility ([4]; pH 7.4, aqueous with cosolvent or surfactant or cyclodextrin, read-out: Solubility in pH 7.4 (KH2PO4 + 0.1% Tween 80)-simulating human intestine) was 0.00174 mg/mL and the “solubility higher than that of IM032-Cl” value ([4]; two biorelevant media, pH 2 and pH 7.4) was over 20 ×.
